The source of these data is patent US20050158775A1, “Novel plamid DNA comprising reoprter gene DNA and use of the same” (priority 1997, published 2005).

The target in experiment [1] is T1, Gal4-human PPAR α chimeric receptor protein (Homo sapiens, UniProt Q07869).
T1 construct: the 167th serine (Ser) to the 468th tyrosine (Tyr) of the human PPAR α receptor; expressed in transfected cells
T1 sequence (Q07869 167-468): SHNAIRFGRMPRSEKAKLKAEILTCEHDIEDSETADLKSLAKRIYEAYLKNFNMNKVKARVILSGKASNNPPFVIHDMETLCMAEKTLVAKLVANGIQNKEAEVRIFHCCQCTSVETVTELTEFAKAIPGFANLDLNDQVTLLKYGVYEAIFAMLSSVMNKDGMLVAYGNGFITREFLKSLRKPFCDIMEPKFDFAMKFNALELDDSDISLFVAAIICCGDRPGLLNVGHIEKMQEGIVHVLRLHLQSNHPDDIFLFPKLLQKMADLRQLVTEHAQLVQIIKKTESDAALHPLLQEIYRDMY
In kind it is cell-based.

In experiment [2] the target is T2, Gal4-human PPAR δ chimeric receptor protein (Homo sapiens, UniProt Q03181).
T2 construct: the 139th serine (Ser) to the 441st tyrosine (Tyr) of the human PPAR δ receptor; expressed in transfected cells
T2 sequence (Q03181 139-441): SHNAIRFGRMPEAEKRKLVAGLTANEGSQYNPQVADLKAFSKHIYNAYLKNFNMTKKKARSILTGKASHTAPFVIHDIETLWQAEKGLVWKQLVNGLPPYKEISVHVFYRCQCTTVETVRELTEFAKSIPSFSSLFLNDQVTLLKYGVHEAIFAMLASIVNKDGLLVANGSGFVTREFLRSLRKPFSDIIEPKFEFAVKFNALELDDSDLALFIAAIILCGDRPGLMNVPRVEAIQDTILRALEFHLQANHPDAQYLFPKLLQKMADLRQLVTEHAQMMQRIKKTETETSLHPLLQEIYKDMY
In kind it is cell-based.

Experiment [3] concerns the target T3, Gal4-human PPAR γ chimeric receptor protein (Homo sapiens, UniProt P37231).
T3 sequence (P37231 176-477 isoform P37231-2): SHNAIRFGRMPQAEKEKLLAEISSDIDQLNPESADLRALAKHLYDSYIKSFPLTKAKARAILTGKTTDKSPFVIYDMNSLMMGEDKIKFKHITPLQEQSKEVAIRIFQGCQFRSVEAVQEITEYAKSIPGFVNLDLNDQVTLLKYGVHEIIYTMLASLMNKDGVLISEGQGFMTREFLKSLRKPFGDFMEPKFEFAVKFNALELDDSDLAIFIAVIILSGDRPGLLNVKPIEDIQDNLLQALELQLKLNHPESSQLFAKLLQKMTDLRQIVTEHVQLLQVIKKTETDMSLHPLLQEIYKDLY

As for `CCCCCC#CCC#CCC#CCC#CCCCC(=O)O` [ETYA], in experiment [1], the “cell death of PPAR α ligand-responsive cells” value was “cause dose-dependent cell death”. Also, the “cell death of PPAR δ ligand-responsive cells” value in experiment [2] is “do not cause cell death”.

With `Cc1cccc(Nc2cc(Cl)nc(SCC(=O)O)n2)c1C` [Wy-14643], in experiment [1], the “cell death of PPAR α ligand-responsive cells” value is “cause dose-dependent cell death”. Moreover, the “cell death of PPAR γ ligand-responsive cells” value in experiment [3] was “do not cause cell death”.
